Measurements as given in patent US9233144B2, “Tyrosine kinase receptor TYRO3 as a therapeutic target in the treatment of cancer” (INSTITUT CURIE, priority 2008, dated 2016).

Columns and labels:
TYRO3 [1] = assay: Efficiency of TYRO3 silencing after siRNA transfection (mRNA and western-blot); format: cell-based, human; settings: MGH-U3, KK47, J82 and RT112 cells; 50 nM siRNA; 72 hours after transfection
Protocol: Cells were transfected with 50 nM siRNA (siRNA anti-TYRO3 (SEQ ID No. 1) or control siRNA (scramble, SEQ ID No. 2)) and the efficiency of TYRO3 silencing was assessed 72 hours after transfection by western-blot.

[2] = tested on: MGH-U3, KK47, J82 and RT112 cells; assay: Cell viability after siRNA transfection (trypan blue count); format: cell-based, human; settings: 50 nM siRNA, 72 hours after transfection
Protocol: (§1) After transfection as described in the legend of FIG. 4, cells were treated with trypsin 72 hours after transfection, stained with trypan blue and viable cells were counted in triplicate, using a Malassez hematocytometer. Results are the means+/−SD of two independent experiments carried out in triplicate.
(§2) In order to investigate the role of TYRO3 in cell growth and tumorigenic properties, TYRO3 expression was blocked using RNA interference technology or TYRO3 activity was inhibited using a blocking antibody directed against the extracellular domain of TYRO3 or a soluble receptor consisting of the recombinant extracellular domain of TYRO3 produced in bacteria. Two cell lines expressing TYRO3 (MGH-U3, KK47), two cell lines expressing both TYRO3 and GAS6 (J82, RT112) and one control breast cancer derived cell line presenting a very low TYRO3 expression level (MCF-7) were used. It was shown by western blot using an anti-phosphotyrosine antibody after TYRO3 immunoprecipitation that in each type of cell line (expressing or not GAS6), TYRO was activated (data not shown).

MCF7 cells = assay: Cell viability after siRNA transfection, control cell line with very low TYRO3 expression; format: cell-based, human
Protocol: as §1, §2

bladder cancer cells [3] = assay: TUNEL assay on transfected bladder cancer cells; format: cell-based, human; settings: 50 nM siRNA; 72 hours after transfection
Protocol: 3×10^4 cells per well were seeded on a glass slide in a 24-well plate and transfected with 50 nM siRNA. DNA fragmentation was evaluated 72 hours after transfection, using a TUNEL (deoxynucleotidyl transferase (Tdt)-mediated nick-end labeling) assay detection Kit (Roche Diagnostic, Meylan, France) according to the manufacturer's instructions. The inventors analyzed 600 cells under a light microscope, determining the proportion of labeled cells.

bladder cancer cells [4] = assay: Cell cycle analysis by flow-cytometry 72 h post siRNA transfection; format: cell-based, human
Protocol: Results were analyzed using Fisher test, *** p<0.001, * 0.01<p<0.05

[5] = tested on: MGH-U3, KK47, RT112 and J82 colonies; assay: Anchorage-independent colony formation in soft agar; format: cell-based, human; settings: 50 nM siRNA, two weeks
Protocol: 2.10^4 50 nM siRNA-transfected cells in DMEM supplemented with 10% FCS and 0.3% agar, were added to triplicate wells containing medium and 0.8% agar on 12-well plates. The plates were incubated for two weeks and colonies with diameters greater than 50 μm were scored as positive, using a phase-contrast microscope equipped with a measuring grid. Results are the means+/−SD of two independent experiments carried out in triplicate.

MGH-U3 xenografts = assay: Growth of MGH-U3 xenografts, siRNA treatment; format: in vivo, athymic nude mice
Protocol: Tumor-bearing mice were treated three times a week by intraperitoneal injection of 4 μg siRNA (control or TYRO3) (6 mice and 12 tumors per group) (The first injection corresponds to day 0). Tumor volume variations are represented on the graph of FIG. 12A. (Wilcoxon rank sum test: *, 0.05<p<0.01, **, 0.01<p<0.001, ***, p<0.001) Inset are pictures of representative tumors observed at the end of the treatment. The upper line tumors are those of TYRO3 siRNA treated mice. The middle line tumors are those of control siRNA treated mice. The lower line tumors are those of PBS treated mice. Tumors were weighted at the end of the experiment (FIG. 12B).
The role of this gene in bladder cancer cell growth in vivo was studied. J82 and MGH-U3 cells were implanted subcutaneously in athymic nude mice. Once tumors were established, mice were randomly selected for treatment with control or TYRO3-specific siRNAs. For J82 xenografts, two weeks after the beginning of treatment only three tumors out of 12 were still observed (FIGS. 11A and 11B). For MGH-U3 xenografts, after 21 days of treatment, tumor volume was 70% lower in mice treated with TYRO3 siRNA than in mice treated with control siRNA (Wilcoxon rank-sum test, p<0.001) (FIGS. 12A and 12B).

TYRO3 [6] = assay: TYRO3 mRNA levels in MGH-U3 xenografts by Q-RT-PCR; format: in vivo, athymic nude mice; settings: 3 days after the last siRNA injection, Student's t-test p<0,001
Source text: FIG. 13 is a graph showing TYRO3 mRNA levels for MGH-U3 xenografts, 3 days after the last siRNA injection, divided by TBP (TATA binding protein) mRNA levels+/−SD in treated and control tumors, as assessed by Q-RT-PCR.

[7] = siRNA treated xenografts, data not shown

TYRO3 siRNA: siRNA anti-TYRO3 comprising the sequence of SEQ ID No. 1 (GGUGUGCCAUUUUUCACAGTT; chemistry not given here)
inhibition of TYRO3 mRNA and protein levels (TYRO3 [1]): 80-90% | viable cells versus control siRNA [2]: fewer viable | effect on viable cells (MCF7 cells): no effect | apoptotic rate (TUNEL) (bladder cancer cells [3]): increased apoptotic rate | change in cell-cycle progression (bladder cancer cells [4]): significant but low change | viable colonies in soft agar assays [5]: fewer viable | tumor volume lower than in mice treated with control siRNA (MGH-U3 xenografts; MGH-U3 xenografts, after 21 days of treatment, 4 μg siRNA intraperitoneal three times a week, p<0.001): 70% | apoptosis in treated tumors (TUNNEL analysis) (MGH-U3 xenografts; [7]): increase apoptosis | histological difference between treated and control tumors (MGH-U3 xenografts; [7]): No histological difference | TYRO3 mRNA levels in tumors (TYRO3 [6]): significant decrease
